Test system: HCV replicon (5-2 Luc replicon-comprising cells)
Assay: HCV replicon luciferase emission assay
Type: cell-based
Conditions: Hepatitis C virus; 5-2 Luc replicon cells, 24 hours with compound, 50% reduction in luciferase emission
Text: The inhibitory activity of certain exemplary compounds of the invention was confirmed using an HCV replicon assay. The HCV replicon can include such features as the HCV 5′ untranslated region including the HCV IRES, the HCV 3′ untranslated region, selected HCV genes encoding HCV polypeptides, selectable markers, and a reporter gene such as luciferase, GFP, etc. In the assay, actively dividing 5-2 Luc replicon-comprising cells (obtained from Rolf Bartenschlager; see Lohmann et al., 1999, Science 285:110-113) were seeded at a density of between about 5,000 and 7,500 cells/well onto 96 well plates (about 90 μl of cells per well) and incubated at 37° C. and 5% CO2 for 24 hours. Then, the test compound (in a volume of about 10 μl) was added to the wells at various concentrations and the cells were incubated for an additional 24 hours before luciferase assay. The media was aspirated from each well and Bright-Glo (Promega, Madison, Wis.) luciferase assay reagents were added to each well according to the manufacturer's instructions. Briefly, the Bright-Glo reagent was diluted 1:1 with PBS and 100 μl of diluted reagent was added to each well. After 5 min of incubation at room temperature, luciferin emission was quantified with a luminometer. In this assay, the amount of test compound that yielded a 50% reduction in luciferase emission (IC50) was determined.

Structure (SMILES): O=C1c2ccccc2-c2onc3ccc(N4CC4)c1c23 [Compound 2]
- IC50: 800 nM

From patent publication US20050143433A1, “Substituted heterocycles useful for treating HCV infection” (priority 2003, published 2005)
